Paper PMC6001238, “Iterative Chemical Engineering of Vancomycin Leads to Novel Vancomycin Analogs With a High in Vitro Therapeutic Index” (Frontiers in Microbiology, 2018)
Converted amounts (≈) assume the structure as drawn. Like-named read-outs stand apart in the source and are kept apart here.

Experiments:
E. faecalis VRE 37 = assay: MIC, broth microdilution, vancomycin-resistant E. faecalis VRE 37 (VanA); format: cell-based, Enterococcus faecalis; details: for MIC: Enterococcus faecalis VRE 37 (vancomycin-resistant), read-out: MIC; for MIC-fold improvement vs. vancomycin: VRE 37, ratio of MIC of vancomycin and MIC of analogue
In short: (§1)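 CLSI broth microdilution; water and uninoculated-broth controls; one arm supplemented with vancomycin, final 10 μM, given with analogue or control antibiotic.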

[1] = test system: human cervix carcinoma (HeLa) cells; assay: Cytostatic activity, HeLa cell proliferation; format: cell-based; details: mean ± SD of three experiments; highest concentration tested 250 µM; 4 days; read-out: Toxicity (IC50) HeLa
In short: (§2)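 Test compounds, serially diluted, received an equal volume of cell suspension at 300,000–500,000 cells/mL. After 37°C incubation (2 days for L1210, 3 for CEM, 4 for HeLa), cells were enumerated by Coulter counting and 50%-inhibitory concentrations calculated per cell type.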

E. faecalis VRE 29 = assay: MIC, broth microdilution, vancomycin-resistant E. faecalis VRE 29 (VanA); format: cell-based, Enterococcus faecalis; details: for MIC: Enterococcus faecalis VRE 29 (vancomycin-resistant), read-out: MIC; for MIC-fold improvement vs. vancomycin: VRE 29, ratio of MIC of vancomycin and MIC of analogue
In short: as §1

[2] = test system: S. aureus VSSA (ATCC 6538); assay: MIC, broth microdilution, vancomycin-sensitive S. aureus (VSSA/MSSA, ATCC 6538); format: cell-based, Staphylococcus aureus; details: for MIC: Staphylococcus aureus VSSA, read-out: MIC; for MIC-fold improvement vs. vancomycin: VSSA, ratio of MIC of vancomycin and MIC of analogue
In short: as §1

E. faecalis VSE 1 = assay: MIC, broth microdilution, vancomycin-sensitive E. faecalis (VSE 1); format: cell-based, Enterococcus faecalis; details: for MIC: Enterococcus faecalis VSE 1 (vancomycin-sensitive), read-out: MIC; for MIC-fold improvement vs. vancomycin: VSE 1, ratio of MIC of vancomycin and MIC of analogue
In short: as §1

E. faecalis VRE 6 = assay: MIC, broth microdilution, vancomycin-resistant E. faecalis VRE 6 (VanA); format: cell-based, Enterococcus faecalis; details: for MIC: Enterococcus faecalis VRE 6 (vancomycin-resistant), read-out: MIC; for MIC-fold improvement vs. vancomycin: VRE 6, ratio of MIC of vancomycin and MIC of analogue
In short: as §1

[3] = test system: Clostridium difficile ATJ ribotype 014/20; assay: MIC, plate drop assay, C. difficile ATJ ribotype 014/20; format: cell-based; details: C. difficile ATJ ribotype 014/20
Experimental: (§3) Bacterial lawns of both C. difficile strains were prepared by adding 0.5 mL overnight culture to 8 mL sloppy BHI agar (0.4% agar) supplemented with 1.5 g/L CaCl2⋅2H2O and 81.2 g/L MgCl2⋅6H2O, and pouring the mixture into Petri plates. A twofold dilution series of the selected vancomycin analogs, vancomycin ([…]) and daptomycin (25 μM) was spotted (10 μL) on the bacterial lawn. Spots were air-dried and the plates were incubated overnight at 37°C in an anaerobic cabinet. Ultrapure water was included as negative control. The assay was performed in triplicate. Inhibition was observed by cleared spots.

MRSA KS89 = assay: MIC, broth microdilution, MRSA KS89; format: cell-based, Staphylococcus aureus; details: for MIC-fold improvement vs. vancomycin: ratio of MIC of vancomycin and MIC of analogue; for MIC: read-out: MIC
In short: as §1

MRSA KS1 = assay: MIC, broth microdilution, MRSA KS1; format: cell-based, Staphylococcus aureus; details: for MIC-fold improvement vs. vancomycin: MRSA KS1, ratio of MIC of vancomycin and MIC of analogue; for MIC: Staphylococcus aureus MRSA KS1, read-out: MIC
In short: as §1

[4] = test system: L1210, CEM and HeLa cell lines; assay: Cytostatic activity, average or summary over L1210, CEM and HeLa; format: cell-based; details: average of L1210, CEM and HeLa; read-out: Toxicity (IC50) Average
In short: as §2

[5] = test system: human T-lymphocyte (CEM) cells; assay: Cytostatic activity, CEM cell proliferation; format: cell-based; details: mean ± SD of three experiments; highest concentration tested 250 µM; 3 days; read-out: Toxicity (IC50) CEM
In short: as §2

[6] = test system: Clostridium difficile AIU ribotype 027; assay: MIC, plate drop assay, C. difficile AIU ribotype 027; format: cell-based; details: for MIC-fold improvement vs. vancomycin: C. difficile AIU ribotype 027
Experimental: as §3

E. faecalis VRE 53 = assay: MIC, broth microdilution, vancomycin-resistant E. faecalis VRE 53 (VanA); format: cell-based, Enterococcus faecalis; details: for MIC: Enterococcus faecalis VRE 53 (vancomycin-resistant), read-out: MIC; for MIC-fold improvement vs. vancomycin: VRE 53, ratio of MIC of vancomycin and MIC of analogue
In short: as §1

MRSA KS6 = assay: MIC, broth microdilution, MRSA KS6; format: cell-based, Staphylococcus aureus; details: for MIC-fold improvement vs. vancomycin: MRSA KS6, ratio of MIC of vancomycin and MIC of analogue; for MIC: Staphylococcus aureus MRSA KS6, read-out: MIC
In short: as §1

S. aureus VISA/HIP5827 = assay: MIC, broth microdilution, vancomycin-intermediate S. aureus VISA HIP5827; format: cell-based, Staphylococcus aureus; details: for MIC: Staphylococcus aureus VISA/HIP5827, read-out: MIC; for MIC-fold improvement vs. vancomycin: VISA/HIP5827, ratio of MIC of vancomycin and MIC of analogue
In short: as §1

MRSA KS2 = assay: MIC, broth microdilution, MRSA KS2; format: cell-based, Staphylococcus aureus; details: for MIC-fold improvement vs. vancomycin: MRSA KS2, ratio of MIC of vancomycin and MIC of analogue; for MIC: Staphylococcus aureus MRSA KS2, read-out: MIC
In short: as §1

S. aureus VRSA = assay: MIC, broth microdilution, vancomycin-resistant S. aureus (VRSA); format: cell-based, Staphylococcus aureus; details: for MIC: Staphylococcus aureus VRSA, read-out: MIC; for MIC-fold improvement vs. vancomycin: VRSA, ratio of MIC of vancomycin and MIC of analogue
In short: as §1

[7] = test system: Murine leukemia (L1210) cells; assay: Cytostatic activity, L1210 cell proliferation; format: cell-based; details: mean ± SD of three experiments; highest concentration tested 250 µM; 2 days; read-out: Toxicity (IC50) L1210
In short: as §2

[8] = Staphylococcus aureus MRSA KS8 (head; KS89 in title)

Row | SMILES | MIC (E. faecalis VRE 37) [µM] | MIC-fold improvement vs. vancomycin (E. faecalis VRE 37) | IC50 [1] [µM] | MIC (E. faecalis VRE 29) [µM] | MIC-fold improvement vs. vancomycin (E. faecalis VRE 29) | MIC [2] [µM] | MIC-fold improvement vs. vancomycin [2] | MIC (E. faecalis VSE 1) [µM] | MIC-fold improvement vs. vancomycin (E. faecalis VSE 1) | MIC (E. faecalis VRE 6) [µM] | MIC-fold improvement vs. vancomycin (E. faecalis VRE 6) | IC50 [4] [µM] | IC50 [5] [µM] | MIC (E. faecalis VRE 53) [µM] | MIC-fold improvement vs. vancomycin (E. faecalis VRE 53) | MIC (S. aureus VISA/HIP5827) [µM] | MIC-fold improvement vs. vancomycin (S. aureus VISA/HIP5827) | MIC (S. aureus VRSA) [µM] | MIC-fold improvement vs. vancomycin (S. aureus VRSA) | IC50 [7] [µM] | other results
1 | CN[C@H](CC(C)C)C(=O)N[C@H]1C(=O)N[C@@H](CC(N)=O)C(=O)N[C@H]2C(=O)N[C@H]3C(=O)N[C@H](C(=O)N[C@H](C(=O)NCC(=O)Nc4ccc(C)cc4)c4cc(O)cc(O)c4-c4cc3ccc4O)[C@H](O)c3ccc(c(Cl)c3)Oc3cc2cc(c3O[C@@H]2O[C@H](CO)[C@@H](O)[C@H](O)[C@H]2O[C@H]2C[C@](C)(N)[C@H](O)[C@H](C)O2)Oc2ccc(cc2Cl)[C@H]1O [Vanc-4] | 6.25 (≈ 9.97 µg/mL) | 128 | > 250 | 6.25 (≈ 9.97 µg/mL) | 64 | 0.39 (≈ 0.622 µg/mL) | 2 | 0.39 (≈ 0.622 µg/mL) | 4 | 3.13 (≈ 4.99 µg/mL) | 64 | > 250 | > 250 | 6.25 (≈ 9.97 µg/mL) | 64 | 0.39 (≈ 0.622 µg/mL) | 16 | 6.25 (≈ 9.97 µg/mL) | 16 | > 250 | MIC-fold improvement vs. vancomycin [3]: 5.6; MIC-fold improvement vs. vancomycin (MRSA KS89; MRSA KS8): 2; MIC (MRSA KS89; Staphylococcus aureus MRSA KS8): 0.39 µM (≈ 0.622 µg/mL); MIC-fold improvement vs. vancomycin (MRSA KS1): 2; MIC (MRSA KS1): 0.39 µM (≈ 0.622 µg/mL); MIC-fold improvement vs. vancomycin [6]: <1.8; MIC ([6]; C. difficile AIU ribotype 027, plate drop assay): >25 µM; MIC-fold improvement vs. vancomycin (MRSA KS6): 2; MIC (MRSA KS6): 0.39 µM (≈ 0.622 µg/mL); MIC-fold improvement vs. vancomycin (MRSA KS2): 4; MIC (MRSA KS2): 0.20 µM (≈ 0.319 µg/mL)
2 | CN[C@H](CC(C)C)C(=O)N[C@H]1C(=O)N[C@@H](CC(N)=O)C(=O)N[C@H]2C(=O)N[C@H]3C(=O)N[C@H](C(=O)N[C@H](C(=O)NCC(=O)Nc4ccc5cc6ccccc6cc5c4)c4cc(O)cc(O)c4-c4cc3ccc4O)[C@H](O)c3ccc(c(Cl)c3)Oc3cc2cc(c3O[C@@H]2O[C@H](CO)[C@@H](O)[C@H](O)[C@H]2O[C@H]2C[C@](C)(N)[C@H](O)[C@H](C)O2)Oc2ccc(cc2Cl)[C@H]1O [Vanc-59] | 1.56 (≈ 2.62 µg/mL) | 256 | 88 ± 37 | 3.13 (≈ 5.26 µg/mL) | 128 | 0.39 (≈ 0.656 µg/mL) | 2 | 0.20 (≈ 0.336 µg/mL) | 8 | 1.56 (≈ 2.62 µg/mL) | 128 | 96 | 23 ± 6 | 12.5 (≈ 21 µg/mL) | 32 | 0.39 (≈ 0.656 µg/mL) | 16 | 0.20 (≈ 0.336 µg/mL) | 512 | 177 ± 90 | MIC-fold improvement vs. vancomycin [3]: 22; MIC-fold improvement vs. vancomycin [6]: 29
3 | CCCCCn1cc(-c2ccc(NC(=O)CNC(=O)C3NC(=O)C4NC(=O)C(NC(=O)C5NC(=O)C(CC(N)=O)NC(=O)C(NC(=O)C(CC(C)C)NC)C(O)c6ccc(c(Cl)c6)Oc6cc5cc(c6OC5OC(CO)C(O)C(O)C5OC5CC(C)(N)C(O)C(C)O5)Oc5ccc(cc5Cl)C4O)c4ccc(O)c(c4)-c4c(O)cc(O)cc43)cc2)nn1 (stereo not shown) [Vanc-91] | 6.25 (≈ 10.7 µg/mL) | 64 | 147 ± 11 | 6.25 (≈ 10.7 µg/mL) | 64 | 0.10 (≈ 0.172 µg/mL) | 8 | ≤0.05 | ≥32 | 1.56 (≈ 2.68 µg/mL) | 128 | 136 | 107 ± 25 | 25 (≈ 43 µg/mL) | 16 | 0.39 (≈ 0.67 µg/mL) | 16 | 0.39 (≈ 0.67 µg/mL) | 256 | 154 ± 93 | MIC-fold improvement vs. vancomycin (MRSA KS89; MRSA KS8 (head; KS89 in title)): 4; MIC (MRSA KS89; [8]): 0.20 µM (≈ 0.344 µg/mL); MIC-fold improvement vs. vancomycin (MRSA KS1): 8; MIC (MRSA KS1): 0.10 µM (≈ 0.172 µg/mL); MIC-fold improvement vs. vancomycin (MRSA KS6): 8; MIC (MRSA KS6): 0.10 µM (≈ 0.172 µg/mL); MIC-fold improvement vs. vancomycin (MRSA KS2): 8; MIC (MRSA KS2): 0.10 µM (≈ 0.172 µg/mL)
4 | CCCCCCn1cc(-c2ccc(NC(=O)CNC(=O)C3NC(=O)C4NC(=O)C(NC(=O)C5NC(=O)C(CC(N)=O)NC(=O)C(NC(=O)C(CC(C)C)NC)C(O)c6ccc(c(Cl)c6)Oc6cc5cc(c6OC5OC(CO)C(O)C(O)C5OC5CC(C)(N)C(O)C(C)O5)Oc5ccc(cc5Cl)C4O)c4ccc(O)c(c4)-c4c(O)cc(O)cc43)cc2)nn1 (stereo not shown) [Vanc-92] | 6.25 (≈ 10.8 µg/mL) | 64 | 98 ± 12 | 6.25 (≈ 10.8 µg/mL) | 64 | 0.20 (≈ 0.347 µg/mL) | 4 | 0.10 (≈ 0.173 µg/mL) | 16 | 6.25 (≈ 10.8 µg/mL) | 32 | 75 | 31 ± 7 | 25 (≈ 43.3 µg/mL) | 16 | 0.78 (≈ 1.35 µg/mL) | 8 | 0.78 (≈ 1.35 µg/mL) | 128 | 95 ± 75 | MIC-fold improvement vs. vancomycin (MRSA KS89; MRSA KS8 (head; KS89 in title)): 4; MIC (MRSA KS89; [8]): 0.20 µM (≈ 0.347 µg/mL); MIC-fold improvement vs. vancomycin (MRSA KS1): 4; MIC (MRSA KS1): 0.20 µM (≈ 0.347 µg/mL); MIC-fold improvement vs. vancomycin (MRSA KS6): 4; MIC (MRSA KS6): 0.20 µM (≈ 0.347 µg/mL); MIC-fold improvement vs. vancomycin (MRSA KS2): 4; MIC (MRSA KS2): 0.20 µM (≈ 0.347 µg/mL)
